One data set is described as follows: in vivo. Conditions: male, Sprague Dawley (CD), rat, lung.
The conditions of data set [1]: rat, i.v. 5 mg/kg.
The format of data set [2] is physicochemical. As to conditions: for d50: median particle size; for d10 / d90: particle size; for d10: 10th percentile; for d90: 90th percentile. On the procedure: The suspensions were sonicated in a bath or with a sonic probe prior to analysis to deagglomerate and form a homogeneous suspension. Particle size was analyzed by both light obscuration and laser diffraction methods.

The nature of data set [3]: Specific surface area analysis (BET). Conditions: for SSA: BET method.
The mark [4] stands for this setting: Example 1 processed vs raw material.

Like-named read-outs stand apart in the source and are kept apart here.

In the case of `O=C(O)c1cn(C2CC2)c2cc(N3CCNCC3)c(F)cc2c1=O` [Ex. 2 ciprofloxacin, 1-cyclopropyl-6-fluoro-4-oxo-7-(piperazin-1-yl)-1,4-dihydroquinoline-3-carboxylic acid], in “in vivo” (inhaled, 3 mg/kg), the concentration at 0.5 h is 153000 ng/g, the concentration at 6 h came out at 48400 ng/g, the concentration at 12 h worked out at 12800 ng/g and the concentration at 24 h is 607 ng/g.

Consider `O=C(O)c1cn(C2CC2)c2cc(N3CCNCC3)c(F)cc2c1=O` [ciprofloxacin, reference compound], for which the Lung concentration entry is given as “BQL*” in data set [1] (12 hours) and “BQL” in data set [1] (24 hours). Besides, the concentration at 0.5 h in the data set “in vivo” (iv, 5 mg/kg) turned out to be 843 ng/g. Besides, the concentration at 6 h in “in vivo” (iv, 5 mg/kg) was determined as 113 ng/g.

In data set [2], `O=C(O)c1cn(C2CC2)c2cc(N3CCNCC3)c(F)cc2c1=O` [Ciprofloxacin Raw material, 1-cyclopropyl-6-fluoro-4-oxo-7-(piperazin-1-yl)-1,4-dihydroquinoline-3-carboxylic acid, reference compound] displayed a d50 of 14.8 μm, a d10 of 1.44 μm and a d90 of 244 μm. In data set [3], this compound showed an SSA of 11.8 m^2/g.

Turning to `Cl.O=C(O)c1cn(C2CC2)c2cc(N3CCNCC3)c(F)cc2c1=O` [Example 1 processed, 1-cyclopropyl-6-fluoro-4-oxo-7-(piperazin-1-yl)-1,4-dihydroquinoline-3-carboxylic acid hydrochloride salt], in data set [2] (setting [4]), the “% Change of d10” value is given as −90%, the “% Change of d50” value is listed as −94% and the “% Change of d90” value is −94%. Moreover, in data set [2] (hydrochloride salt), the d50 is given as 1.37 μm, the d10 is recorded as 0.61 μm and the d90 was found to be 3.64 μm. Further, in data set [3] (hydrochloride salt), the SSA is recorded as 19.42 m^2/g. For the same compound, in data set [3] (setting [4]), the “% Change of SSA” value is listed as “+153%”.

With `O=C(O)c1cn(C2CC2)c2cc(N3CCNCC3)c(F)cc2c1=O` [Example 2 processed Batch 1, 1-cyclopropyl-6-fluoro-4-oxo-7-(piperazin-1-yl)-1,4-dihydroquinoline-3-carboxylic acid], in data set [2], the d50 was 4.63 μm, the d10 was 1.62 μm and the d90 was 9.32 μm. In data set [3], this compound gave an SSA of 7.68 m^2/g.

With `Cl.O=C(O)c1cn(C2CC2)c2cc(N3CCNCC3)c(F)cc2c1=O` [Ciprofloxacin hydrochloride Raw material, 1-cyclopropyl-6-fluoro-4-oxo-7-(piperazin-1-yl)-1,4-dihydroquinoline-3-carboxylic acid hydrochloride salt, reference compound], in data set [2] (hydrochloride salt), the d50 is recorded as 22.7 μm, the d10 came to 6.05 μm and the d90 was found to be 56.0 μm. For the same compound, the SSA in data set [3] (hydrochloride salt) is given as 7.68 m^2/g.

Consider `O=C(O)c1cn(C2CC2)c2cc(N3CCNCC3)c(F)cc2c1=O` [Example 2 processed Batch 2, 1-cyclopropyl-6-fluoro-4-oxo-7-(piperazin-1-yl)-1,4-dihydroquinoline-3-carboxylic acid], for which, in data set [2], the d50 is listed as 5.57 μm, the d10 came out at 1.79 μm and the d90 came to 13.3 μm. In addition, in data set [3], the SSA is 14.3 m^2/g.

With `O=C(O)c1cn(C2CC2)c2cc(N3CCNCC3)c(F)cc2c1=O` [Example 2 processed Batch 3, 1-cyclopropyl-6-fluoro-4-oxo-7-(piperazin-1-yl)-1,4-dihydroquinoline-3-carboxylic acid], in data set [2], the d50 worked out at 3.26 μm, the d10 is on record as 1.19 μm and the d90 turned out to be 6.65 μm. Besides, the SSA in data set [3] is 12.9 m^2/g.
